{
  "source": "patent US20220106282A1",
  "about": "“TREATMENT FOR BREAST CANCER, INCLUDING TRIPLE-NEGATIVE BREAST CANCER” (priority 2018, published 2022)",
  "key": {"uterine body": {"system": "uterine body", "assay": "Hormonal effect: uterine body weight in tumor-bearing mice", "assay_type": "in vivo, mouse", "protocol": "To estimate the hormonal effect of the medicament, the weight of the uterine body without uterine horns was measured (Table 9)."}, "ovariectomized rats": {"system": "ovariectomized rats", "assay": "Biochemical parameters of ovariectomized rats", "assay_type": "in vivo, rat", "conditions": "ovariectomised rats"}, "[1]": {"system": "breast tumors in female FVB mice transgenic for HER-2/neu", "assay": "Antitumor activity on model of multiple breast tumors in HER-2/neu transgenic mice", "protocol": "Two adenocarcinoma subtypes can be differentiated, in particular ER+, PR−, and ER−, PR− [2].\nThe study was carried out in female FVB mice transgenic for HER-2/neu by conventional category; the strain was obtained from the mouse bank Charles River Laboratories (Italy). At the beginning of the study the animals were 21-41 weeks old having weight of 25 to 30 g.\nThe study medicament was administered i.g. using a metal atraumatic gavage (with the procedure corresponds to the oral route of administration in clinical settings). The medicament was administered in a single daily dose (20 mg/kg of body weight) and 5-fold daily dose of 100 mg/kg of body weight. Ex tempore solutions of the medicament for administration were prepared in olive oil (refined olive oil supplemented with unrefined extra virgin olive oil available under Global Village “Clasico” trademark, lot L:183351116, expiry date 26 Apr. 2020, BAIEO, Spain). The administered volume was 0.1 ml per 10 g of a mouse body weight (0.2 ml of a ready-to-use formulation for a mouse of 20 g). The medicament administration was started 24 hours after the randomization. The duration of the administration course was 27-28 days.\nThis dose corresponds to a human daily dose of 20 mg/kg.\nThe control groups were given the olive oil (placebo).\nThe evaluation criteria included the clinical observation data, animals body weights, time of death (if applicable), tumor growth over time, pathomorphological examination data (verification of a neoplasm during autopsy, assessment of toxic effects by macroscopic presentation of changes in the internal organs).\nThe animals body weights were recorded before the first administration of the medicaments and then twice per week using a verified high-speed electronic laboratory balance Ohaus Scout Pro (USA) with a maximum load of 2000 g and a measurement step of 0.1 g.\nMacroscopically detectable tumor nodes were measured in animals once per week during weighing process. Two linear dimensions including the largest one and the largest rectangular to the former were recorded for each of the nodes. The largest dimension was taken as a length (a) and the second dimension as a width (b) of the tumor nodes. A tumor volume was calculated by the expression as follows: […]\nThe efficacy of the therapy was assessed by recording a change in the average tumor volume, tumor growth inhibition (TGI), and the average total tumor volumes and its change over time in each of the mice.\nThe percent of tumor growth inhibition was calculated by the expression as follows:\nTGI=(Vctrl−Vexp)/Vctrl×100(%),\nwhere Vctrl is an average tumor volume in a control group, and Vexp is an average tumor volume in an experimental group.\nThe primary data from individual forms were transferred to Microsoft Excel 2007 books. The group arithmetic average (M) and standard deviation (m) were calculated for all quantitative data. The statistical analysis was performed using the statistical software GraphPad Prism 6.0. The differences between the groups were assessed using ANOVA regression analysis and the Fisher's exact test."}, "[2]": {"conditions": "20 mg/kg i.g. daily, Day 27 vs Day −1"}},
  "note": "Where “and” joins values, the source holds several entries; their conditions need not be identical. Identical values can stand only once. Entries after “also recorded” stand apart in the source; their conditions may differ. Marks after values point to notes of the source that are not given here.",
  "data": [
    {"smiles": "C[C@H]1Oc2cc(OS(N)(=O)=O)ccc2[C@H]2CC[C@]3(C)C(=O)CCC[C@H]3[C@H]21", "note": "[compound of formula (1), 3-O-sulphamoyloxy-7β-methyl-D-homo-6-oxa-8α-estra-1,3,5(10)-trien-17a-one]", "values": [
      {"measurement": "Uterine body weight", "setting": "uterine body; 20 mg/kg, all mice", "value": "48 ± 5", "unit": "mg"},
      {"measurement": "Uterine body weight", "setting": "uterine body; 20 mg/kg, estrous phase D", "value": "49 ± 16", "unit": "mg"},
      {"measurement": "Uterine body weight", "setting": "uterine body; 20 mg/kg, estrous phase E", "value": "47 ± 7", "unit": "mg"},
      {"measurement": "Uterine body weight", "setting": "uterine body; 100 mg/kg, all mice", "value": "50 ± 6", "unit": "mg"},
      {"measurement": "Uterine body weight", "setting": "uterine body; 100 mg/kg, estrous phase D", "value": "26 ± 12", "unit": "mg"},
      {"measurement": "Uterine body weight", "setting": "uterine body; 100 mg/kg, estrous phase E", "value": "56 ± 5", "unit": "mg"},
      {"measurement": "Hormonal (uterotropic) effect on the uterus", "setting": "uterine body; uterine body weight versus control group, listed as medicament", "value": "no uterotropic activity; also recorded: did not differ from that of the control group"},
      {"measurement": "Uterotropic activity", "setting": "ovariectomized rats", "value": "no uterotropic activity"},
      {"measurement": "Uterus weight", "setting": "ovariectomized rats; medicament 5 mg/kg bw", "value": "33 ± 3", "unit": "mg/100 g bw"},
      {"measurement": "Average total volume of tumors in mice (M)", "setting": "[1]; 20 mg/kg i.g. daily, Day 6", "value": 0.86, "unit": "cm^3"},
      {"measurement": "Average volume of tumors present at the beginning of the experiment (M)", "setting": "[1]; 20 mg/kg i.g. daily, Day 6", "value": 0.32, "unit": "cm^3"},
      {"measurement": "Relative change of the average total volume of tumors to that of Day −1 (M)", "setting": "[1]; 20 mg/kg i.g. daily, Day 6", "value": 20, "unit": "%"},
      {"measurement": "TGI (average total tumor volume)", "setting": "[1]; 20 mg/kg i.g. daily, Day 6", "value": "−26", "unit": "%"},
      {"measurement": "TGI (average tumor volume)", "setting": "[1]; 20 mg/kg i.g. daily, Day 6", "value": "−7", "unit": "%"},
      {"measurement": "Average total volume of tumors in mice (M)", "setting": "[1]; 20 mg/kg i.g. daily, Day 13", "value": 1.04, "unit": "cm^3"},
      {"measurement": "Average volume of tumors present at the beginning of the experiment (M)", "setting": "[1]; 20 mg/kg i.g. daily, Day 13", "value": 0.39, "unit": "cm^3"},
      {"measurement": "Relative change of the average total volume of tumors to that of Day −1 (M)", "setting": "[1]; 20 mg/kg i.g. daily, Day 13", "value": "38** %"},
      {"measurement": "TGI (average total tumor volume)", "setting": "[1]; 20 mg/kg i.g. daily, Day 13", "value": 19, "unit": "%"},
      {"measurement": "TGI (average tumor volume)", "setting": "[1]; 20 mg/kg i.g. daily, Day 13", "value": 30, "unit": "%"},
      {"measurement": "Average total volume of tumors in mice (M)", "setting": "[1]; 20 mg/kg i.g. daily, Day 20", "value": 1.61, "unit": "cm^3"},
      {"measurement": "Average volume of tumors present at the beginning of the experiment (M)", "setting": "[1]; 20 mg/kg i.g. daily, Day 20", "value": 0.6, "unit": "cm^3"},
      {"measurement": "Relative change of the average total volume of tumors to that of Day −1 (M)", "setting": "[1]; 20 mg/kg i.g. daily, Day 20", "value": "101** %"},
      {"measurement": "TGI (average total tumor volume)", "setting": "[1]; 20 mg/kg i.g. daily, Day 20", "value": "−7", "unit": "%"},
      {"measurement": "TGI (average tumor volume)", "setting": "[1]; 20 mg/kg i.g. daily, Day 20", "value": 9, "unit": "%"},
      {"measurement": "Average total volume of tumors in mice (M)", "setting": "[1]; 20 mg/kg i.g. daily, Day 27", "value": 2.19, "unit": "cm^3"},
      {"measurement": "Average volume of tumors present at the beginning of the experiment (M)", "setting": "[1]; 20 mg/kg i.g. daily, Day 27", "value": 0.81, "unit": "cm^3"},
      {"measurement": "Relative change of the average total volume of tumors to that of Day −1 (M)", "setting": "[1]; 20 mg/kg i.g. daily, Day 27", "value": "212** %"},
      {"measurement": "TGI (average total tumor volume)", "setting": "[1]; 20 mg/kg i.g. daily, Day 27", "value": "−7", "unit": "%"},
      {"measurement": "TGI (average tumor volume)", "setting": "[1]; 20 mg/kg i.g. daily, Day 27", "value": 9, "unit": "%"},
      {"measurement": "% of change from baseline (average total tumor volume)", "setting": "[1]; [2]", "value": 204, "unit": "%"},
      {"measurement": "% of change to the initial value (average tumor volume)", "setting": "[1]; [2]", "value": 200, "unit": "%"},
      {"measurement": "Average total volume of tumors in mice (M)", "setting": "[1]; 20 mg/kg i.g. daily, Day −1", "value": 0.72, "unit": "cm^3"},
      {"measurement": "Average volume of tumors present at the beginning of the experiment (M)", "setting": "[1]; 20 mg/kg i.g. daily, Day −1", "value": 0.27, "unit": "cm^3"},
      {"measurement": "Relative change of the average total volume of tumors to that of Day −1 (M)", "setting": "[1]; 20 mg/kg i.g. daily, Day −1", "value": 0, "unit": "%"},
      {"measurement": "TGI (average total tumor volume)", "setting": "[1]; 20 mg/kg i.g. daily, Day −1", "value": "−71", "unit": "%"},
      {"measurement": "TGI (average tumor volume)", "setting": "[1]; 20 mg/kg i.g. daily, Day −1", "value": "−50", "unit": "%"},
      {"measurement": "Average volume of new tumors, % less than that of the control group", "setting": "[1]; 20 mg/kg i.g. daily, end of observation", "value": 18, "unit": "%"},
      {"measurement": "Absolute number of new tumors", "setting": "[1]; 20 mg/kg i.g. daily, end of study", "value": 29},
      {"measurement": "Frequency of tumor stabilizations", "setting": "[1]; 20 mg/kg i.g. daily, end of study, volume not increased by more than 20%", "value": 19, "unit": "%"},
      {"measurement": "Average volume of new tumors at the end of the observation period (M)", "setting": "[1]; 20 mg/kg i.g. daily, listed as medicament", "value": "0.27±0.05 cm^3 and 0.27 cm^3"},
      {"measurement": "Average total volume of tumors in mice (M)", "setting": "[1]; 100 mg/kg i.g. daily, Day 6", "value": 0.94, "unit": "cm^3"}
    ]}
  ]
}
